# According to patent publication US10259777B2, “(E)-3-(3,4-dihydroxyphenyl)-N-(prop-2-yn-1-yl)acrylamide for treatment of neurodegenerative diseases” (THE UNIVERSITY OF HONG KONG, priority 2015, dated 2019):
# Columns and labels:
# heme oxygenase-1 (HO-1) = experiment: HO-1 induction in PC12 cells, Western blot; assay type: cell-based, rat; details: PACA 5 to 100 μM for 24 hours or 20 μM for 3, 6, 12, 24 hours
# Description: Induction of HO-1 expression is a key mechanism underlying the neuritogenic effects of PACA. (A & B) Western blot analysis of HO-1 induction. Following PACA treatment at different concentrations (A) and for different time points (B), the cellular proteins were isolated and analyzed by Western blotting for HO-1 expression. GAPDH was analyzed as the control of protein loading. (C) PACA stimulated neurite outgrowth via HO-1-mediated mechanism. PC12 cells were treated with NGF (2 ng/ml) in combination with PACA (5 μM, 20 μM) in presence or absence of HO-1 inhibitor SnPP for 72 hours. Cells were stained by neurite outgrowth staining kit and imaged under a fluorescence microscope. (D) Role of HO-1 induction in the neuritogenic activity of PACA. The images captured in Panel C were analyzed for the number of neurite bearing cells. The cells bearing neurites longer than 20 μm were counted. The values represent means±SD (n=3). **, p<0.01 (+SnPP vs −SnPP).
# It is well-known that direct modification of Keap1 causes the dissociation of the Nrf2-Keap1 complex and subsequent expression of heme oxygenase-1 (HO-1). Following the treatment with PACA at the concentrations ranging from 5 to 100 μM for 24 hours or at the concentration of 20 μM for 3, 6, 12, 24 hours, PC12 cells were analyzed by Western blotting for HO-1 induction.
# PC12 cells [1] = experiment: Mitochondrial membrane integrity against 6-OHDA, JC-1 probe; assay type: cell-based, rat; details: 6-OHDA with PACA 5, 10, 20 and 50 μM
# Description: PC12 cells were treated with 6-OHDA alone or in combination with PACA for 6 hours and subsequently stained with JC-1. The images were captured under a fluorescence microscope.
# To investigate the neuroprotective mechanisms of PACA, PC12 cells were treated with 6-OHDA alone or in combination with PACA at the concentrations of 5, 10, 20 and 50 μM. At the end of treatment, the protection of PACA on the mitochondrial membrane integrity was examined by using a cell permeable fluorescent probe 5,5′,6,6′-tetrachloro-1,1′,3,3′-tetraethyl-benzimidazol-carbocyanine iodide (JC-1). 6-OHDA deadly disrupted the mitochondrial membrane integrity as indicated by the leakage of JC-1 into the cytosol.
# PC12 cells [2] = experiment: 6-OHDA-induced superoxide production, DHE staining; assay type: cell-based, rat; details: 6-OHDA with PACA 5, 10, 20 and 50 μM
# Description: After the treatment with 6-OHDA alone or in combination with PACA at different concentrations, PC12 cells were stained with a fluorescent probe dihydroethidium (DHE) for the production of superoxide anion (A & B) and another fluorescent probe DAF-FM Diacetate for the production of nitric oxide ([…]), respectively. (A) Representative images of DHE-stained cells. 6-OHDA, 200 μM; PACA, 50 (B) PACA inhibited 6-OHDA-induced formation of superoxide ions. PC12 cells were treated with 6-OHDA alone or in combination with PACA for 6 h and subsequently stained with a probe DHE. The images were captured under a fluorescence microscope. The fluorescence was determined by ImageJ software. (C) Representative images of DAF-FM DA-stained cells. 6-OHDA, 200 μM; PACA, 50 μM. (D) PACA inhibited 6-OHDA-induced NO production. PC12 cells were treated with 6-OHDA alone or in combination with PACA for 6 h and subsequently stained with a probe DAF-FM DA. The images were captured under a fluorescence microscope. The fluorescence was determined by ImageJ software.
# PC12 cells were treated with 6-OHDA alone or in combination with PACA at the concentrations of 5, 10, 20 and 50 μM. At the end of treatment, PC12 cells were then stained with a fluorescent probe dihydroethidium (DHE) for the production of superoxide anion and another fluorescent probe DAF-FM Diacetate for the production of nitric oxide, respectively.
# Keap1 = target: T1, Keap1 (Rattus norvegicus, UniProt P57790); experiment: Identification of PACA-modified proteins by Click chemistry biotin tagging and affinity isolation; assay type: cell-based; details: 20 μM PACA, biotin tag by Click chemistry, Keap1 antibody pull-down
# T1 construct: endogenous in cells; host or cells: PC12 (rat pheochromocytoma) cells
# Description: PACA directly modifies the proteins bearing free cysteine residues after oxidase-mediated oxidation into chemically reactive o-quinone. At the end of 24 hour incubation, a biotin tag was introduced to the proteins that were covalently modified by PACA. Following affinity isolation with anti-Keap1 antibody bead, streptavidin-horseradish peroxidase (HRP) detected Keap1 as the predominant PACA-modified protein with the apparent molecular size of ˜72 kDa. (A) Biotinylation of PACA-modified proteins by Click chemistry. Oxidase represents the enzymes that oxidize PACA to o-quinone, Protein-SH represents the protein bearing free cysteine residues. (B) Procedure for the isolation of PACA-modified proteins. (C) Western blotting analysis of PACA-modified proteins. PC12 cells were treated with PACA (20 μM) for 6 h. […] All protein fractions were resolved by SDS-PAGE and detected by streptavidin-HRP conjugate. […]
# PACA is converted to the chemically reactive o-quinone intermediate by the intracellular oxidases after PACA got inside the cells. […] Following gel electrophoresis and Western blotting onto PVDF (polyvinylidene difluoride) membranes, HRP-streptavidin conjugate detected a predominant ˜70 kDa protein band (data not shown). Such protein band was also detected by keap1 antibody through a similar procedure. […] The blots were probed by HRP-conjugated streptavidin, and subsequently detected by chemiluminescence. […]
# T1 sequence (P57790 whole entry): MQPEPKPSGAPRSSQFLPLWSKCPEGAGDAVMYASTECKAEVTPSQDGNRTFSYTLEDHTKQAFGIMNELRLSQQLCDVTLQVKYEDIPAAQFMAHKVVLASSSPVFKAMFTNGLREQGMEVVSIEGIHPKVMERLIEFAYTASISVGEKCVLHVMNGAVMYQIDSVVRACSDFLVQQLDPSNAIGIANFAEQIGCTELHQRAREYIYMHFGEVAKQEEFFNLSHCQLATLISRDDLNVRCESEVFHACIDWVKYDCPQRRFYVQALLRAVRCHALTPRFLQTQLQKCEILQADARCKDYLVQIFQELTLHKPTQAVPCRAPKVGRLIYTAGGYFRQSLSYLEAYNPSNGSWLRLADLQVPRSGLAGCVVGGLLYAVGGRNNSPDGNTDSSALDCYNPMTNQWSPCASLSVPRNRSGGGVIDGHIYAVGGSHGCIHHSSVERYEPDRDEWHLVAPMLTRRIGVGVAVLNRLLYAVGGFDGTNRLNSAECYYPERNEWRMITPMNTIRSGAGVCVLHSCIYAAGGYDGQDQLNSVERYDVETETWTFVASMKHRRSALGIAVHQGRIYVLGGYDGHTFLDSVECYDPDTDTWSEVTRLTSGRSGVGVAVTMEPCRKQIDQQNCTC
smiles,measurement,setting,value
"C#CCNC(=O)/C=C/c1ccc(O)c(O)c1 [PACA, (E)-3-(3,4-dihydroxyphenyl)-N-(prop-2-yn-1-yl)acrylamide]",HO-1 expression,heme oxygenase-1 (HO-1),induced HO-1 expression in a time- and concentration-dependent manner
same,mitochondrial membrane integrity against 6-OHDA,PC12 cells [1],maintained the mitochondrial membrane integrity in a concentration-dependent manner
same,6-OHDA-induced formation of superoxide ions,PC12 cells [2],significantly attenuated
same,PACA-modified protein isolated from treated PC12 cells,Keap1,kelch-like ECH-associated protein 1 (Keap1) was isolated as the predominant protein
